Source: ChEMBL document CHEMBL3991601, “The target landscape of clinical kinase drugs” (Science, 2017)
pKd: −log10 of the molar value. Calls of active or inactive are those of the source.

Legend:
[1] = molecular target: T1, Glycogen phosphorylase, brain form (Homo sapiens, UniProt P11216)
T1 sequence (P11216 whole entry): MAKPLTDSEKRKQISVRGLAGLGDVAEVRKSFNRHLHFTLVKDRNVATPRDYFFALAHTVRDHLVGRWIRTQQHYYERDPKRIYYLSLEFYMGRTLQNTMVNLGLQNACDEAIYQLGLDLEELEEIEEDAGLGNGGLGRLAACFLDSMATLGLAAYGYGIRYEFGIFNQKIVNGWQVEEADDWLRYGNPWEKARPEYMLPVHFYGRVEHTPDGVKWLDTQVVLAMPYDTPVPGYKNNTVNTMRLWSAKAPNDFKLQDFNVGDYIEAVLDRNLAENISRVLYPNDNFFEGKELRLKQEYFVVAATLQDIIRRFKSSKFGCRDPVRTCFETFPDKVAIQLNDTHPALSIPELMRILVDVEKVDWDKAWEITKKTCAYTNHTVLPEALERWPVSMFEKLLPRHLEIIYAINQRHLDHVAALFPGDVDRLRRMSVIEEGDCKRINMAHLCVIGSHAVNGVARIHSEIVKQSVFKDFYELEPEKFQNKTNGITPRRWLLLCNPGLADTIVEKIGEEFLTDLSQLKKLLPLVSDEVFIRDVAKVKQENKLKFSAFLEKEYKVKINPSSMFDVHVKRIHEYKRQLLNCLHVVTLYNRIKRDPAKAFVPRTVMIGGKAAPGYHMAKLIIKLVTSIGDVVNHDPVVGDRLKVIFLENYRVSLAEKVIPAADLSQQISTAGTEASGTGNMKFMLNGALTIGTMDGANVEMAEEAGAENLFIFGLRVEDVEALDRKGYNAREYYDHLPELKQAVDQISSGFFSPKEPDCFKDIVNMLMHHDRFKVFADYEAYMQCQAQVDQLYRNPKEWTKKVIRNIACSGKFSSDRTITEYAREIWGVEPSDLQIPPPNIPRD

[2] = molecular target: Inosine-5'-monophosphate dehydrogenase 2 (Homo sapiens, UniProt P12268)
[3] = molecular target: T2, Very long-chain specific acyl-CoA dehydrogenase, mitochondrial (Homo sapiens, UniProt P49748)
T2 sequence (P49748 whole entry): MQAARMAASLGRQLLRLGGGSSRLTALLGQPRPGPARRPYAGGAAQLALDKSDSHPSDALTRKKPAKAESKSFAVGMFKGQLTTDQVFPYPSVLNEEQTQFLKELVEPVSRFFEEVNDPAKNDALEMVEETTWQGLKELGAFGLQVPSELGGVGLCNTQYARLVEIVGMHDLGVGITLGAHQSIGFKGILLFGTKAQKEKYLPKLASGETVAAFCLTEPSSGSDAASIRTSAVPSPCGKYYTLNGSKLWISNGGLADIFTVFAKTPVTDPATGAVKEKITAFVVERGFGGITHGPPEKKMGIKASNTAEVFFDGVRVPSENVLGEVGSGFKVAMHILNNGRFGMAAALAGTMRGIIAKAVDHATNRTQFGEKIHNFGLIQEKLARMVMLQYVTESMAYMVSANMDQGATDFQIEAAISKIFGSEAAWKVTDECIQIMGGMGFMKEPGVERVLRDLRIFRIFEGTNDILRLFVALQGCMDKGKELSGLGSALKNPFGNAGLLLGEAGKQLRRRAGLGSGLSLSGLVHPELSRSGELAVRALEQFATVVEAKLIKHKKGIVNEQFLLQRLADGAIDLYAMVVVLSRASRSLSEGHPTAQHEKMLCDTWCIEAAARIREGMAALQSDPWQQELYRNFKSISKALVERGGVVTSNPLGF

[4] = molecular target: DnaJ homolog subfamily A member 1 (Homo sapiens, UniProt P31689)
Sequence of DnaJ homolog subfamily A member 1 (P31689 whole entry): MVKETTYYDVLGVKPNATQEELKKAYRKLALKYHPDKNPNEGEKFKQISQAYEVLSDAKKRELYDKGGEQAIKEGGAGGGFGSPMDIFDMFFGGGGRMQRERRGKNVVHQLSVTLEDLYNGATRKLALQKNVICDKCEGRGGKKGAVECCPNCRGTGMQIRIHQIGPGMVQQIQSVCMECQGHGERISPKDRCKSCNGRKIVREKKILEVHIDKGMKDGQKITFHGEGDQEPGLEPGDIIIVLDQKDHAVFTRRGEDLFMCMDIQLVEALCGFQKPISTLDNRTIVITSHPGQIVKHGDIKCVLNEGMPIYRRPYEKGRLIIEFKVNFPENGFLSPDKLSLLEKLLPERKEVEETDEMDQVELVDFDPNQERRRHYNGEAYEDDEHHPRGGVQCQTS

[5] = molecular target: T3, Dynamin-like GTPase OPA1, mitochondrial (Homo sapiens, UniProt O60313)
T3 sequence (O60313 whole entry): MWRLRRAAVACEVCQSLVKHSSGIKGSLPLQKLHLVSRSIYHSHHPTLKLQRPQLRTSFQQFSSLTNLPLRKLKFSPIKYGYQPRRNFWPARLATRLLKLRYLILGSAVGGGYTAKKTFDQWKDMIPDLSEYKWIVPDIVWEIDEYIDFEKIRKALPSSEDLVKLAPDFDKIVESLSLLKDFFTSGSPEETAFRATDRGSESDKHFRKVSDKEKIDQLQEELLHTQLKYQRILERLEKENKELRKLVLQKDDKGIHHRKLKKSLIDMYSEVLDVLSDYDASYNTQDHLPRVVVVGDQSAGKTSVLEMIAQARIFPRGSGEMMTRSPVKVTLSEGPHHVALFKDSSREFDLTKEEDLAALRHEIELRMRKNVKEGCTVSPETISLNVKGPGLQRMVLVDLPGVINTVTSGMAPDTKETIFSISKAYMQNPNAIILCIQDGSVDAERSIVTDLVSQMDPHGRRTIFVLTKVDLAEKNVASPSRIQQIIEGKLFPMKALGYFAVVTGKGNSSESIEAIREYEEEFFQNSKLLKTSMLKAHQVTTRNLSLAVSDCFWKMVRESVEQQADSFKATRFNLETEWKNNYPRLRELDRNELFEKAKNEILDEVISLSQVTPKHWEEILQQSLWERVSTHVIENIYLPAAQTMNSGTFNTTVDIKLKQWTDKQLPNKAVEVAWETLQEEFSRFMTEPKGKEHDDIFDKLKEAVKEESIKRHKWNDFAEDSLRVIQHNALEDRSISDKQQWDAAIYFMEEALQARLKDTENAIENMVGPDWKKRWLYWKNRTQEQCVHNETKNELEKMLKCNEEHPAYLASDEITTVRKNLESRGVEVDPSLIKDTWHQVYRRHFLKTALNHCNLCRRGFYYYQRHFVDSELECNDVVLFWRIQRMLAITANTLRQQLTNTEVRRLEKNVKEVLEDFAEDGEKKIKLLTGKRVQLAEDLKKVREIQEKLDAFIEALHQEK

[6] = molecular target: Structural maintenance of chromosomes protein 2 (Homo sapiens, UniProt O95347)
Sequence of Structural maintenance of chromosomes protein 2 (O95347 whole entry): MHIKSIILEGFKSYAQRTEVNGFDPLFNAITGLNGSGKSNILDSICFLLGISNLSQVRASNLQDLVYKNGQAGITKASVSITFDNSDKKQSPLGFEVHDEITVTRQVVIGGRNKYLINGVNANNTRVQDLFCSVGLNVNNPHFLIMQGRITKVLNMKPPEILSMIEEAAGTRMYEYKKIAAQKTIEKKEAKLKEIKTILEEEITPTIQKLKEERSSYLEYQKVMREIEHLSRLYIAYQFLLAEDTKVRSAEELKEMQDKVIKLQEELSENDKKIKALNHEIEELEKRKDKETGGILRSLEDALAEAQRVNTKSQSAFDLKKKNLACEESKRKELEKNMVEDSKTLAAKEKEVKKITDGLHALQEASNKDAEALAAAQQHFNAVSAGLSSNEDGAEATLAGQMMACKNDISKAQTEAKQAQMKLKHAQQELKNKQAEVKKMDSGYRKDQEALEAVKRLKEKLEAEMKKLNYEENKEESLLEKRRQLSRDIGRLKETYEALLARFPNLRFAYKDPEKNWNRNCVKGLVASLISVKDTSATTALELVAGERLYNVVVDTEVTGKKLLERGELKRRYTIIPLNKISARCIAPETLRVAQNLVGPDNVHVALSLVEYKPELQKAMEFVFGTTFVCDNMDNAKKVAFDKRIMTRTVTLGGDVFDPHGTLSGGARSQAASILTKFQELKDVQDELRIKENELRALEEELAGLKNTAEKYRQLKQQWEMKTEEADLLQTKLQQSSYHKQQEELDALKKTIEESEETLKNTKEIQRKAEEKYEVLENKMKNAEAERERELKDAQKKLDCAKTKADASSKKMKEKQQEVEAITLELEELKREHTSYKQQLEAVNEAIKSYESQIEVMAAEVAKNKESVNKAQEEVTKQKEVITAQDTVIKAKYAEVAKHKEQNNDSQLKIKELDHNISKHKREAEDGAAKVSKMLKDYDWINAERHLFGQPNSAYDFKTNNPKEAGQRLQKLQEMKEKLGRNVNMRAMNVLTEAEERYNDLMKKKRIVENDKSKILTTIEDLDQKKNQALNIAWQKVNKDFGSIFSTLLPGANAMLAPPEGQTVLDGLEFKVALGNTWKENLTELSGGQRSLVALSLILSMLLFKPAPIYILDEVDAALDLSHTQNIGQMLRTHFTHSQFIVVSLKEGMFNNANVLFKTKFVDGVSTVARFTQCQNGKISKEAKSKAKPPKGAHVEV

[7] = molecular target: cAMP-dependent protein kinase type II-alpha regulatory subunit (Homo sapiens, UniProt P13861)
Sequence of cAMP-dependent protein kinase type II-alpha regulatory subunit (P13861 whole entry): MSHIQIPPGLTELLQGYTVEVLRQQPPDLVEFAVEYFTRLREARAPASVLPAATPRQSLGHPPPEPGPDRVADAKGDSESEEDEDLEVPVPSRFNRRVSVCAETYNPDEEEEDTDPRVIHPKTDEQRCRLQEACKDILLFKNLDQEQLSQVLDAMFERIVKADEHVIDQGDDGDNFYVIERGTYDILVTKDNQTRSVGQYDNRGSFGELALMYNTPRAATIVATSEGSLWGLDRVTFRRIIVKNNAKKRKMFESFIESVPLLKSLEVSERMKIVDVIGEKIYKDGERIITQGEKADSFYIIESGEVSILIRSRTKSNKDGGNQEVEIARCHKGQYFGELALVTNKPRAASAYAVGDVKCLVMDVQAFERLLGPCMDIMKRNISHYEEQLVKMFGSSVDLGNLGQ

[8] = molecular target: Mitogen-activated protein kinase 7 (Homo sapiens, UniProt Q13164)
Sequence of Mitogen-activated protein kinase 7 (Q13164 whole entry): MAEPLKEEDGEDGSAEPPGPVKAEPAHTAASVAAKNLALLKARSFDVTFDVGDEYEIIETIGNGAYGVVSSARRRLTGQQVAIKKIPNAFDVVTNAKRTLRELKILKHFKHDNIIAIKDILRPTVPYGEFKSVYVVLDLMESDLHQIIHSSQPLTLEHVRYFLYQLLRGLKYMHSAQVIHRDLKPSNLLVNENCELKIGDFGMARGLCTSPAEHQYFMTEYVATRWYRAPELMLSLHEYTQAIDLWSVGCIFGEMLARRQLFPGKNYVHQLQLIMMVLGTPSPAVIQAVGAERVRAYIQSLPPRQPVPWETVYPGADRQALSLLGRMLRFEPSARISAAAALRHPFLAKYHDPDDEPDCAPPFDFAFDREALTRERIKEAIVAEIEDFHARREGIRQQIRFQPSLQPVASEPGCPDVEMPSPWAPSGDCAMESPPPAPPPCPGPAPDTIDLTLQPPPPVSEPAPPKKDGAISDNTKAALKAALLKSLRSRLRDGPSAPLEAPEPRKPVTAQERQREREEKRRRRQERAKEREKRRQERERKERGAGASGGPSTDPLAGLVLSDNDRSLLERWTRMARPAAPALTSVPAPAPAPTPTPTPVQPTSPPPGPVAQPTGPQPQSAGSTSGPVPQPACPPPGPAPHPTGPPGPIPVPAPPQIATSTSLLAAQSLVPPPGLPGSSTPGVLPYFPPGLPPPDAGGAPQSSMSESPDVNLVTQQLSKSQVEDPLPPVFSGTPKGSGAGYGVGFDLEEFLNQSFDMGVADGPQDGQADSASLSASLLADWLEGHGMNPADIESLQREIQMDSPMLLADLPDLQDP

[9] = molecular target: Ribosomal protein S6 kinase alpha-1 (Homo sapiens, UniProt Q15418)
Sequence of Ribosomal protein S6 kinase alpha-1 (Q15418 whole entry): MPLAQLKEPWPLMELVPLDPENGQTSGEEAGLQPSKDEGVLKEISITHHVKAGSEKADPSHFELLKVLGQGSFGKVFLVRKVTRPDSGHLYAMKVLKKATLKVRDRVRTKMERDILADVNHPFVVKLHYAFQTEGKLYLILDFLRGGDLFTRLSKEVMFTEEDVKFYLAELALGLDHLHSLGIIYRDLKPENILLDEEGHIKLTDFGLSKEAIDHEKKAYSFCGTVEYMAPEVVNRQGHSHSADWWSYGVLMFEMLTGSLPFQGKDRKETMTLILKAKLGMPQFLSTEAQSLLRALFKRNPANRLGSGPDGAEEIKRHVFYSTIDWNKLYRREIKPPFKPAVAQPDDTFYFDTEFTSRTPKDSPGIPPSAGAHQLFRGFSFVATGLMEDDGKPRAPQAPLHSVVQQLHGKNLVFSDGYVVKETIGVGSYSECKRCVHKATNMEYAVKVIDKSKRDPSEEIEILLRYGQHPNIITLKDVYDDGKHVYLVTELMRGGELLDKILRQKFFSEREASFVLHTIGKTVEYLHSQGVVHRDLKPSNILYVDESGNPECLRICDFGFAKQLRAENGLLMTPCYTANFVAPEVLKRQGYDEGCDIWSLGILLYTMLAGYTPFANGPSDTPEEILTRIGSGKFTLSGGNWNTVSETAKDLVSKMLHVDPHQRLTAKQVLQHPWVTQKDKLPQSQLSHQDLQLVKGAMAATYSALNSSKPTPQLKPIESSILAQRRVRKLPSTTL

[10] = molecular target: Cyclin-dependent kinase 2 (Homo sapiens, UniProt P24941)
Also: in the data inactive means no Kd found up to 30 µM.

| SMILES | Kd [1] | Kd [2] | Kd [3] | Kd [4] | Kd [5] | Kd [6] | Kd [7] | Kd [8] | Kd [9] | Kd [10] | pKd [6] |
| --- | --- | --- | --- | --- | --- | --- | --- | --- | --- | --- | --- |
| C[C@]1(O)C[C@@H](c2nc(-c3ccc4ccc(-c5ccccc5)nc4c3)c3c(N)nccn32)C1 [LINSITINIB] | > 30 µM (inactive) | > 30 µM (inactive) | > 30 µM (inactive) | > 30 µM (inactive) | > 30 µM (inactive) | > 30 µM (inactive) | > 30 µM (inactive) | > 30 µM (inactive) | > 30 µM (inactive) |  |  |
| COc1cc2ncnc(Nc3ccc(O)cc3)c2cc1OC [WHI-P131] | > 30 µM (inactive) | > 30 µM (inactive) | > 30 µM (inactive) | > 30 µM (inactive) | > 30 µM (inactive) | > 30 µM (inactive) | > 30 µM (inactive) | > 30 µM (inactive) | > 30 µM (inactive) |  |  |
| CN(c1ncccc1CNc1nc(Nc2ccc3c(c2)CC(=O)N3)ncc1C(F)(F)F)S(C)(=O)=O [PF-00562271] | > 30 µM (inactive) | > 30 µM (inactive) | > 30 µM (inactive) | > 30 µM (inactive) | > 30 µM (inactive) | > 30 µM (inactive) | > 30 µM (inactive) |  | > 30 µM (inactive) | 1.07 µM (active) |  |
| Cn1cnc2c(F)c(Nc3ccc(Br)cc3Cl)c(C(=O)NOCCO)cc21 [SELUMETINIB] | > 30 µM (inactive) | > 30 µM (inactive) | > 30 µM (inactive) | > 30 µM (inactive) | > 30 µM (inactive) |  | > 30 µM (inactive) |  |  |  | 6.68 |
| O=S(=O)(c1cccc2cnccc12)N1CCCNCC1 [FASUDIL] | > 30 µM (inactive) | > 30 µM (inactive) | > 30 µM (inactive) | > 30 µM (inactive) | > 30 µM (inactive) | > 30 µM (inactive) | > 30 µM (inactive) | > 30 µM (inactive) | > 30 µM (inactive) |  |  |
| COc1cc2c(N3CCN(C(=O)Nc4ccc(OC(C)C)cc4)CC3)ncnc2cc1OCCCN1CCCCC1 [TANDUTINIB] | > 30 µM (inactive) |  | > 30 µM (inactive) | > 30 µM (inactive) | > 30 µM (inactive) | > 30 µM (inactive) | > 30 µM (inactive) |  |  |  |  |
| COc1cc2c(Oc3ccc4[nH]c(C)cc4c3F)ncnc2cc1OCCCN1CCCC1 [CEDIRANIB] | > 30 µM (inactive) | > 30 µM (inactive) | > 30 µM (inactive) | > 30 µM (inactive) | > 30 µM (inactive) | > 30 µM (inactive) | > 30 µM (inactive) |  |  |  |  |
| CC(C)(O)CC(=O)NCCn1ccc2ncnc(Nc3ccc(Oc4cccc(C(F)(F)F)c4)c(Cl)c3)c21 [TAK-285] | > 30 µM (inactive) | > 30 µM (inactive) | > 30 µM (inactive) | > 30 µM (inactive) | > 30 µM (inactive) | > 30 µM (inactive) | > 30 µM (inactive) |  | > 30 µM (inactive) | > 30 µM (inactive) |  |
| c1cc(OCCN2CCCCC2)cc(-c2n[nH]c3ccc(-c4nc[nH]n4)cc23)c1 [CC-401] | > 30 µM (inactive) | > 30 µM (inactive) |  | > 30 µM (inactive) | > 30 µM (inactive) | > 30 µM (inactive) | > 30 µM (inactive) | > 30 µM (inactive) | > 30 µM (inactive) |  |  |
| CC(C)CC(=O)Nc1[nH]nc2c1CN(C(=O)C1CCN(C)CC1)C2(C)C [PHA-793887] | > 30 µM (inactive) | > 30 µM (inactive) | > 30 µM (inactive) | > 30 µM (inactive) | > 30 µM (inactive) | > 30 µM (inactive) | > 30 µM (inactive) | > 30 µM (inactive) | > 30 µM (inactive) |  |  |
| CC1(C)CNc2cc(NC(=O)c3cccnc3NCc3ccncc3)ccc21 [MOTESANIB] | > 30 µM (inactive) | > 30 µM (inactive) | > 30 µM (inactive) | > 30 µM (inactive) | > 30 µM (inactive) | > 30 µM (inactive) | > 30 µM (inactive) |  |  |  |  |
| CN(C)C/C=C/C(=O)Nc1cc2c(Nc3ccc(F)c(Cl)c3)ncnc2cc1O[C@H]1CCOC1 [AFATINIB] | > 30 µM (inactive) | > 30 µM (inactive) | > 30 µM (inactive) | > 30 µM (inactive) | > 30 µM (inactive) | > 30 µM (inactive) | > 30 µM (inactive) |  |  |  |  |
| O=c1[nH]c([C@@H]2CCCN2)nc2c1oc1ccc(Cl)cc12 | > 30 µM (inactive) | > 30 µM (inactive) | > 30 µM (inactive) | > 30 µM (inactive) | > 30 µM (inactive) | > 30 µM (inactive) | > 30 µM (inactive) |  | > 30 µM (inactive) | > 30 µM (inactive) |  |
| C[C@@]1(C(=O)Nc2ccc(F)nc2)CCCN1c1nc(Nc2cc(C3CC3)n[nH]2)c2cccn2n1 [BMS-754807] | > 30 µM (inactive) | > 30 µM (inactive) | > 30 µM (inactive) | > 30 µM (inactive) | > 30 µM (inactive) | > 30 µM (inactive) |  |  |  |  |  |
| CCN1CCN(Cc2ccc(Nc3ncc(F)c(-c4cc(F)c5nc(C)n(C(C)C)c5c4)n3)nc2)CC1 [ABEMACICLIB] | > 30 µM (inactive) | > 30 µM (inactive) | > 30 µM (inactive) | > 30 µM (inactive) | > 30 µM (inactive) | > 30 µM (inactive) | > 30 µM (inactive) | > 30 µM (inactive) | > 30 µM (inactive) |  |  |
| NC[C@@](O)(c1ccc(Cl)cc1)c1ccc(-c2cn[nH]c2)cc1 [AT-13148] | > 30 µM (inactive) | > 30 µM (inactive) | > 30 µM (inactive) | > 30 µM (inactive) | > 30 µM (inactive) | > 30 µM (inactive) | > 30 µM (inactive) |  | > 30 µM (inactive) | > 30 µM (inactive) |  |
| N#CCNC(=O)c1ccc(-c2ccnc(Nc3ccc(N4CCOCC4)cc3)n2)cc1 [MOMELOTINIB] | > 30 µM (inactive) | > 30 µM (inactive) | > 30 µM (inactive) | > 30 µM (inactive) |  | > 30 µM (inactive) | > 30 µM (inactive) | > 30 µM (inactive) |  |  |  |
